According to ChEMBL document CHEMBL5335828, “Sacculatane Diterpenoids from the Liverwort Plagiochila nitens Collected in China” (J Nat Prod, 2024):
≈ marks a conversion by molar mass, not a printed value.

Test system: Candida albicans
Assay: Antifungal activity against Candida albicans DSY654 harboring CDR1-CDR2 double mutant assessed as inhibition of fungal growth incubated for 24 hrs by alamar blue assay
Format: functional
Conditions: not given

**Q.** For `COC(=O)C1=CO[C@H]2OC(=O)[C@H]3[C@H]2[C@H]1[C@@H]1[C@H](C[C@H]3OC(C)=O)C1(C)C`, which MIC is on record?
**A.** Its MIC is 16 µg/mL (≈ 45.7 µM).

Test system: not listed separately
Assay: Cytotoxicity against mouse Hepa1c1c7 cells incubated for 24 hrs by MTT assay
Format: functional, cell-based
Conditions: Hepa-1c1c7, 24 h

**Q.** Which IC50 does the source give for `C=C1CC[C@H]2[C@](C)(CC[C@H](OC(C)=O)C(C)(C)O)[C@@H](OC(C)=O)CC[C@]2(CO)[C@H]1CO` here?
**A.** Its IC50 is over 50 µM.

**Q.** For `C=C1CC[C@H]2[C@](C)(CC[C@H](OC(C)=O)C(C)(C)O)CCC[C@]2(CO)[C@H]1CO`, which IC50 is on record?
**A.** The IC50 was over 50 µM.

**Q.** Which IC50 does the source give for `CC(=O)O[C@H]1CC[C@@]23CO[C@](C)(CC[C@H]2[C@]1(C)CC[C@H](O)C(C)(C)O)[C@@H]3CO` here?
**A.** Its IC50 is over 50 µM.

**Q.** With `C=C1C[C@H](O)[C@@H]2C3(CCC[C@@]2(C)CCC=C(C)C)[C@H](O)OC[C@@H]13` (some centres undefined) as the compound, how does the IC50 read?
**A.** Its IC50 is over 50 µM.

**Q.** With `COC(=O)C1=CO[C@H]2OC(=O)[C@H]3[C@H]2[C@H]1[C@@H]1[C@H](C[C@H]3OC(C)=O)C1(C)C` as the compound, how does the IC50 read?
**A.** Its IC50 is over 50 µM.

**Q.** For `C=C1CC[C@H]2[C@](C)(CC[C@H](O)C(C)(C)O)CCC[C@]2(CO)[C@H]1CO`, which IC50 is on record?
**A.** Its IC50 is over 50 µM.

**Q.** Which IC50 does the source give for `C=C1CC[C@H]2[C@](C)(CC[C@H](O)C(C)(C)O)CCC[C@]2(COC(C)=O)[C@H]1CO` here?
**A.** Its IC50 is over 50 µM.

**Q.** Which IC50 does the source give for `C=C1CC[C@H]2[C@](C)(CC[C@H](O)C(C)(C)O)[C@@H](OC(C)=O)CC[C@]2(CO)[C@H]1CO` here?
**A.** Its IC50 is over 50 µM.
